Data: ChEMBL document CHEMBL4339185 (Eur J Med Chem, 2019)
Converted amounts (≈) assume the structure as drawn.

Legend:
Staphylococcus aureus [1] = assay: Antimicrobial activity against methicillin-resistant Staphylococcus aureus incubated for 18 hrs by serial microdilution method; assay type: functional
Staphylococcus aureus [2] = assay: Antimicrobial activity against Staphylococcus aureus ATCC 6538 incubated for 18 hrs by serial microdilution method; assay type: functional; settings: ATCC 6538, 18 h
Staphylococcus aureus [3] = assay: Antimicrobial activity against MLSB-resistant Staphylococcus aureus incubated for 18 hrs by serial microdilution method; assay type: functional
[4] = test system: Staphylococcus epidermidis; assay: Antimicrobial activity against Staphylococcus epidermidis ATCC 12228 incubated for 18 hrs by serial microdilution method; assay type: functional; settings: ATCC 12228, 18 h
[5] = test system: Staphylococcus epidermidis; assay: Antimicrobial activity against Staphylococcus epidermidis ATCC 49134 incubated for 18 hrs by serial microdilution method; assay type: functional; settings: ATCC 49134, 18 h
Enterococcus faecalis = assay: Antimicrobial activity against Enterococcus faecalis ATCC 29212 incubated for 18 hrs by serial microdilution method; assay type: functional; settings: ATCC 29212, 18 h
Escherichia coli = assay: Antimicrobial activity against Escherichia coli ATCC 25922 incubated for 18 hrs by serial microdilution method; assay type: functional; settings: ATCC 25922, 18 h
[6] = Solubility of the compound in water at pH 7 by UV-vis spectrophotometric analysis; assay type: physicochemical
[7] = Lipophilicity, log P of the compound in octanol and water incubated for 1 h under shaking condition; assay type: physicochemical

Structure (SMILES) | MIC (Staphylococcus aureus [1]) | MIC (Staphylococcus aureus [2]) | MIC (Staphylococcus aureus [3]) | MIC [4] | MIC [5] | MIC (Enterococcus faecalis) | MIC (Escherichia coli) | solubility [6] | logP at 1 h [7]
CO[C@H]1/C=C/O[C@@]2(C)Oc3c(C)c(O)c4c(O)c(c(C=O)c(O)c4c3C2=O)NC(=O)/C(C)=C\C=C\[C@H](C)[C@H](O)[C@@H](C)[C@@H](O)[C@@H](C)[C@H](OC(C)=O)[C@@H]1C | 4 µg/mL (≈ 5.51 µM) | 2 µg/mL (≈ 2.76 µM) | 2 µg/mL (≈ 2.76 µM) | 2 µg/mL (≈ 2.76 µM) | 2 µg/mL (≈ 2.76 µM) | > 8 µg/mL | > 8 µg/mL | – | –
CO[C@H]1/C=C/O[C@@]2(C)Oc3c(C)c(O)c4c(O)c(c(CN5CCN(Cc6ccc(F)cc6)CC5)c(O)c4c3C2=O)NC(=O)/C(C)=C\C=C\[C@H](C)[C@H](O)[C@@H](C)[C@@H](O)[C@@H](C)[C@H](OC(C)=O)[C@@H]1C | 1 µg/mL (≈ 1.11 µM) | 1 µg/mL (≈ 1.11 µM) | 0.25 µg/mL (≈ 0.277 µM) | 0.25 µg/mL (≈ 0.277 µM) | 0.25 µg/mL (≈ 0.277 µM) | 8 µg/mL (≈ 8.85 µM) | > 8 µg/mL | < 50 µg/mL | 3.31
CO[C@H]1/C=C/O[C@@]2(C)Oc3c(C)c(O)c4c(O)c(c(CN5CCC(N(C)C)CC5)c(O)c4c3C2=O)NC(=O)/C(C)=C\C=C\[C@H](C)[C@H](O)[C@@H](C)[C@@H](O)[C@@H](C)[C@H](OC(C)=O)[C@@H]1C | 0.25 µg/mL (≈ 0.298 µM) | 0.25 µg/mL (≈ 0.298 µM) | 0.125 µg/mL (≈ 0.149 µM) | 0.125 µg/mL (≈ 0.149 µM) | 0.125 µg/mL (≈ 0.149 µM) | 8 µg/mL (≈ 9.55 µM) | > 8 µg/mL | 1870 µg/mL (≈ 2230 µM) | 1.23
CO[C@H]1/C=C/O[C@@]2(C)Oc3c(C)c(O)c4c(O)c(c(CNC5CCN(S(C)(=O)=O)CC5)c(O)c4c3C2=O)NC(=O)/C(C)=C\C=C\[C@H](C)[C@H](O)[C@@H](C)[C@@H](O)[C@@H](C)[C@H](OC(C)=O)[C@@H]1C | 1 µg/mL (≈ 1.13 µM) | 1 µg/mL (≈ 1.13 µM) | 0.5 µg/mL (≈ 0.563 µM) | 0.5 µg/mL (≈ 0.563 µM) | 0.25 µg/mL (≈ 0.282 µM) | > 8 µg/mL | > 8 µg/mL | < 50 µg/mL | 2.34
CO[C@H]1/C=C/O[C@@]2(C)Oc3c(C)c(O)c4c(O)c(c(CNC56CC7CC(CC(C7)C5)C6)c(O)c4c3C2=O)NC(=O)/C(C)=C\C=C\[C@H](C)[C@H](O)[C@@H](C)[C@@H](O)[C@@H](C)[C@H](OC(C)=O)[C@@H]1C | 0.5 µg/mL (≈ 0.581 µM) | 0.5 µg/mL (≈ 0.581 µM) | 0.5 µg/mL (≈ 0.581 µM) | 4 µg/mL (≈ 4.65 µM) | 2 µg/mL (≈ 2.32 µM) | 1 µg/mL (≈ 1.16 µM) | > 8 µg/mL | < 50 µg/mL | 1.91
CO[C@H]1/C=C/O[C@@]2(C)Oc3c(C)c(O)c4c(O)c(c(CNCCN5CCCC5=O)c(O)c4c3C2=O)NC(=O)/C(C)=C\C=C\[C@H](C)[C@H](O)[C@@H](C)[C@@H](O)[C@@H](C)[C@H](OC(C)=O)[C@@H]1C | 2 µg/mL (≈ 2.39 µM) | 2 µg/mL (≈ 2.39 µM) | 4 µg/mL (≈ 4.77 µM) | 2 µg/mL (≈ 2.39 µM) | 1 µg/mL (≈ 1.19 µM) | > 8 µg/mL | > 8 µg/mL | 100 µg/mL (≈ 119 µM) | 1.24
CO[C@H]1/C=C/O[C@@]2(C)Oc3c(C)c(O)c4c(O)c(c(CNC5CCN(C(=O)OC(C)(C)C)CC5)c(O)c4c3C2=O)NC(=O)/C(C)=C\C=C\[C@H](C)[C@H](O)[C@@H](C)[C@@H](O)[C@@H](C)[C@H](OC(C)=O)[C@@H]1C | 0.5 µg/mL (≈ 0.549 µM) | 0.5 µg/mL (≈ 0.549 µM) | 0.5 µg/mL (≈ 0.549 µM) | 0.25 µg/mL (≈ 0.275 µM) | 0.25 µg/mL (≈ 0.275 µM) | 4 µg/mL (≈ 4.4 µM) | > 8 µg/mL | < 50 µg/mL | 2.8
CO[C@H]1/C=C/O[C@@]2(C)Oc3c(C)c(O)c4c(O)c(c(CN5CCN(C)CC5)c(O)c4c3C2=O)NC(=O)/C(C)=C\C=C\[C@H](C)[C@H](O)[C@@H](C)[C@@H](O)[C@@H](C)[C@H](OC(C)=O)[C@@H]1C | 0.5 µg/mL (≈ 0.617 µM) | 0.5 µg/mL (≈ 0.617 µM) | 1 µg/mL (≈ 1.23 µM) | 0.25 µg/mL (≈ 0.309 µM) | 0.25 µg/mL (≈ 0.309 µM) | > 8 µg/mL | > 8 µg/mL | 100 µg/mL (≈ 123 µM) | 1.76
CO[C@H]1/C=C/O[C@@]2(C)Oc3c(C)c(O)c4c(O)c(c(CNC5CCCNC5=O)c(O)c4c3C2=O)NC(=O)/C(C)=C\C=C\[C@H](C)[C@H](O)[C@@H](C)[C@@H](O)[C@@H](C)[C@H](OC(C)=O)[C@@H]1C (some centres not stated) | 0.25 µg/mL (≈ 0.303 µM) | 0.5 µg/mL (≈ 0.607 µM) | 0.5 µg/mL (≈ 0.607 µM) | 0.25 µg/mL (≈ 0.303 µM) | 0.25 µg/mL (≈ 0.303 µM) | > 8 µg/mL | > 8 µg/mL | 210 µg/mL (≈ 255 µM) | 1.14
CO[C@H]1/C=C/O[C@@]2(C)Oc3c(C)c(O)c4c(O)c(c(CNC5CCN(CC6CCCCC6)CC5)c(O)c4c3C2=O)NC(=O)/C(C)=C\C=C\[C@H](C)[C@H](O)[C@@H](C)[C@@H](O)[C@@H](C)[C@H](OC(C)=O)[C@@H]1C | 0.25 µg/mL (≈ 0.276 µM) | 0.25 µg/mL (≈ 0.276 µM) | 0.125 µg/mL (≈ 0.138 µM) | 0.125 µg/mL (≈ 0.138 µM) | 0.125 µg/mL (≈ 0.138 µM) | 4 µg/mL (≈ 4.41 µM) | > 8 µg/mL | < 50 µg/mL | 3.31
CO[C@H]1/C=C/O[C@@]2(C)Oc3c(C)c(O)c4c(O)c(c(CN5CCN(C(c6ccc(F)cc6)c6ccc(F)cc6)CC5)c(O)c4c3C2=O)NC(=O)/C(C)=C\C=C\[C@H](C)[C@H](O)[C@@H](C)[C@@H](O)[C@@H](C)[C@H](OC(C)=O)[C@@H]1C | 4 µg/mL (≈ 4.01 µM) | 4 µg/mL (≈ 4.01 µM) | 8 µg/mL (≈ 8.01 µM) | 4 µg/mL (≈ 4.01 µM) | 2 µg/mL (≈ 2 µM) | > 8 µg/mL | > 8 µg/mL | < 50 µg/mL | 2.34
CO[C@H]1/C=C/O[C@@]2(C)Oc3c(C)c(O)c4c(O)c(c(CNC5CCN(CC(=O)O)CC5)c(O)c4c3C2=O)NC(=O)/C(C)=C\C=C\[C@H](C)[C@H](O)[C@@H](C)[C@@H](O)[C@@H](C)[C@H](OC(C)=O)[C@@H]1C | 0.25 µg/mL (≈ 0.288 µM) | 0.25 µg/mL (≈ 0.288 µM) | 0.5 µg/mL (≈ 0.576 µM) | 0.0625 µg/mL (≈ 0.072 µM) | 0.0625 µg/mL (≈ 0.072 µM) | > 8 µg/mL | > 8 µg/mL | > 100000 µg/mL | -1.5
CO[C@H]1/C=C/O[C@@]2(C)Oc3c(C)c(O)c4c(O)c(c(CNCC(=O)N5CCCCC5)c(O)c4c3C2=O)NC(=O)/C(C)=C\C=C\[C@H](C)[C@H](O)[C@@H](C)[C@@H](O)[C@@H](C)[C@H](OC(C)=O)[C@@H]1C | 1 µg/mL (≈ 1.17 µM) | 1 µg/mL (≈ 1.17 µM) | 1 µg/mL (≈ 1.17 µM) | 0.5 µg/mL (≈ 0.587 µM) | 0.25 µg/mL (≈ 0.293 µM) | > 8 µg/mL | > 8 µg/mL | 120 µg/mL (≈ 141 µM) | 1.35
CO[C@H]1/C=C/O[C@@]2(C)Oc3c(C)c(O)c4c(O)c(c(CNC5CCCC(C(N)=O)C5)c(O)c4c3C2=O)NC(=O)/C(C)=C\C=C\[C@H](C)[C@H](O)[C@@H](C)[C@@H](O)[C@@H](C)[C@H](OC(C)=O)[C@@H]1C (some centres not stated) | 0.5 µg/mL (≈ 0.587 µM) | 0.5 µg/mL (≈ 0.587 µM) | 0.25 µg/mL (≈ 0.293 µM) | 0.25 µg/mL (≈ 0.293 µM) | 0.25 µg/mL (≈ 0.293 µM) | > 8 µg/mL | > 8 µg/mL | 150 µg/mL (≈ 176 µM) | 1.33
CO[C@H]1/C=C/O[C@@]2(C)Oc3c(C)c(O)c4c(O)c(c(CN5CCN(Cc6c(C)cc(C)cc6C)CC5)c(O)c4c3C2=O)NC(=O)/C(C)=C\C=C\[C@H](C)[C@H](O)[C@@H](C)[C@@H](O)[C@@H](C)[C@H](OC(C)=O)[C@@H]1C | 2 µg/mL (≈ 2.15 µM) | 4 µg/mL (≈ 4.31 µM) | 2 µg/mL (≈ 2.15 µM) | 0.5 µg/mL (≈ 0.539 µM) | 1 µg/mL (≈ 1.08 µM) | > 8 µg/mL | > 8 µg/mL | < 300 µg/mL | 1.82
CO[C@H]1/C=C/O[C@@]2(C)Oc3c(C)c(O)c4c(O)c(c(/C=N/N5CCN(C)CC5)c(O)c4c3C2=O)NC(=O)/C(C)=C\C=C\[C@H](C)[C@H](O)[C@@H](C)[C@@H](O)[C@@H](C)[C@H](OC(C)=O)[C@@H]1C [RIFAMPIN] | 0.0156 µg/mL (≈ 0.019 µM) | 0.0156 µg/mL (≈ 0.019 µM) | 0.0312 µg/mL (≈ 0.038 µM) | 0.0156 µg/mL (≈ 0.019 µM) | 0.0156 µg/mL (≈ 0.019 µM) | 8 µg/mL (≈ 9.72 µM) | > 8 µg/mL | – | –
CO[C@H]1/C=C/O[C@@]2(C)Oc3c(C)c(O)c4c(O)c(c5c(nc6cc(C)ccn65)c4c3C2=O)NC(=O)/C(C)=C\C=C\[C@H](C)[C@H](O)[C@@H](C)[C@@H](O)[C@@H](C)[C@H](OC(C)=O)[C@@H]1C [RIFAXIMIN] | 0.0625 µg/mL (≈ 0.0795 µM) | 0.0625 µg/mL (≈ 0.0795 µM) | 0.125 µg/mL (≈ 0.159 µM) | 0.0312 µg/mL (≈ 0.0398 µM) | 0.0312 µg/mL (≈ 0.0398 µM) | 8 µg/mL (≈ 10.2 µM) | > 8 µg/mL | – | –
